Measurements reported in patent US20020103228A1, “Composition and method for use of pyridinium derivatives in cosmetic and therapeutic applications” (TORRENT PHARMACEUTICALS LTD., priority 1999, published 2002).
Where “and” joins values, the source holds several entries; their conditions need not be identical. Identical values can stand only once. Like-named read-outs stand apart in the source and are kept apart here.

Legend:
arterial stiffness = settings: diabetes induced (Wolffenbutel 1998); cited from earlier work
old rats = settings: Li et al (1996); cited from earlier work
[1] = test system: rat model of diabetic retinopathy; settings: cited from earlier work
diabetic rats [2] = settings: cited from earlier work
diabetic rats [3] = settings: cited from earlier work; remark: listed apart in the source
[4] = Free radical scavenging activity on ABTS radical cation; assay type: biochemical
How it was run: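 ABTS radical cation generated with horseradish peroxidase and 1.08 mM H2O2 stock in PBS, preincubated 30 min at 30 °C. Serial dilutions were added, and absorbance at 730 nm was read immediately against PBS blank. % activity = (OD test/OD control ×100) − 100.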

AGE-BSA = biological target: T1, AGE-BSA (Bos taurus, UniProt P02769); test: In-vitro AGE breaking activity by ELISA; assay type: biochemical, Bovine; settings: 37° C., 24 hours
T1 construct: Bovine serum albumin (fraction V) (BSA); from tissue; host or cells: bovine serum (fraction V); glycated in house with 1.6 M glucose at 37 °C for 16 weeks
How it was run: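 BSA glycated with 1.6 M glucose in PBS at 37° C for 16 weeks, then dialyzed; 10 μg/ml AGE-BSA incubated with test compounds 24 h at 37° C. Remaining AGE-BSA coated at 5–20 ng/well and quantified by ELISA (anti-AGE-BSA primary, HRP anti-rabbit, OPD, OD 450–620 nm); % breaking calculated versus untreated 20 ng AGE-BSA.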

[5] = test system: Rat-Tail Tendon collagen of diabetic male wister rats; settings: 8 weeks of treatment
Procedure: To evaluate AGE breaker efficacy of compounds of formula (I) the process of aging was mimicked by induction of diabetes in male wister rats. Diabetes was induced in male wister rats (by repeated STZ injections) to mimic the process of aging and formation of AGE. Diabetic male wister rats were treated with compounds of formula (I) for a period of 8 weeks after induction of diabetes and collagen solubility was measured in Rat-Tail Tendon. Rat Tail Tendon were selected because of their similarity with skin collagen (i.e. Type I collagen). After 8 weeks of treatment the “control” and “treated” groups of animals were sacrificed and tail tendons were homogenized, digested with hydrochloric acid and the supernatant of both the groups of animals was assayed for hydroxyprolin for acid soluble collagen contents as per method of Stegemann and Stalder (clinica Chimica Acta, 18 (1967) 267-273).
Diabetes and aging are degenerative process where normal proteins like collagen become cross-linked. The cross linking of skin collagen can lead to complications like Aging. To test the ability of compounds of invention to break pre-formed AGE, diabetic animals were treated for 8 weeks with the compounds. After the treatment the collagen solubility was estimated to determine their AGE breaking activity.

T1 sequence (P02769 25-607): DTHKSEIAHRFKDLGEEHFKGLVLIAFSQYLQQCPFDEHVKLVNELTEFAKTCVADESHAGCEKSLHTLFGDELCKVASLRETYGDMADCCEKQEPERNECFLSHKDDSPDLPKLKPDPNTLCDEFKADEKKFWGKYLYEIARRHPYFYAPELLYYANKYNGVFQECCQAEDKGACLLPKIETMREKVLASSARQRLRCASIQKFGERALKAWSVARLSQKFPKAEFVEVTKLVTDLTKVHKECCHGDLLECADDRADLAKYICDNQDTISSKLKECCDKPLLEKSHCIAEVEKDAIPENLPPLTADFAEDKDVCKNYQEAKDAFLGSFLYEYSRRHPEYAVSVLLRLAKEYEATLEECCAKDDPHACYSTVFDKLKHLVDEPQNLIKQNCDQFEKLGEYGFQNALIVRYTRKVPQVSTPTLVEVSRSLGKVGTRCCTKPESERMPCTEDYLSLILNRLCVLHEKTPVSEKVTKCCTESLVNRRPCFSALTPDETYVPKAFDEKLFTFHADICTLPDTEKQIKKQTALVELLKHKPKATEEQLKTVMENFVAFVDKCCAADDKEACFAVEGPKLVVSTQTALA

Structure (SMILES) | Relative Free Radical Scavenging Activity (%) on ABTS ([4]; 11.5 μM) | Relative Free Radical Scavenging Activity (%) on ABTS ([4]; 23.0 μM) | Relative Free Radical Scavenging Activity (%) on ABTS ([4]; 46.0 μM) | Relative Free Radical Scavenging Activity (%) on ABTS ([4]; 92.5 μM) | % Breakage (AGE-BSA; 10 mM test compound) | other results
Cc1sc[n+](CC(=O)c2ccccc2)c1C.[Cl-] [ALT-711] |  |  |  |  |  | arterial stiffness and arterial compliance (arterial stiffness): reverse diabetes induced increase of arterial stiffness and improve arterial compliance
N=C(N)NN [Aminoguanidine] |  |  |  |  |  | tissue damage in aging (old rats): significantly prevent tissue damage; progression of diabetic retinopathy [1]: retard progression of diabetic retinopathy; nerve conduction velocity (diabetic rats [2]): improve nerve conduction velocity; development of diabetic nephropathy (diabetic rats [3]; Yamauchi (1997)): inhibits development of diabetic nephropathy; thickening of glomerular basement membrane (diabetic rats [3]; diabetic rats (Ellis 1991)): ameliorate thickening of glomerular basement membrane; rise in albuminuria (diabetic rats [3]; experimental diabetic rats (Soulis-Liparota, 1991)): attenuate the rise in albuminuria
CS(=O)(=O)NNC(=O)c1ccc[n+](CC(=O)c2cccs2)c1.[Br-] [Compound 5, 1-(2-thien-2′-yl-2-oxoethyl)-3-(methanesulfonylhydrazinocarbonyl)pyridinium bromide] | 47.2% | 65.6% | 83.7% | 100% | 16% | % Breakage (AGE-BSA; 50 mM test compound): 68%; % Improvement in collagen solubility with respect to untreated control subject. ([5]; 10.0 mg/kg): 88.80%
O=C(NNC(=O)c1ccc[n+](CC(=O)c2cccs2)c1)c1ccc[n+](CC(=O)c2cccs2)c1.[Br-].[Br-] [Compound 6, N,N′-bis[3-carbonyl-1-(2-thien-2′-yl-2-oxoethyl)pyridinium]hydrazine dibromide] |  |  |  |  |  | % Breakage (AGE-BSA; 5 mM test compound): 53%; % Improvement in collagen solubility with respect to untreated control subject. ([5]; 7.5 mg/kg): 56.70%
O=C(NNC(=O)c1ccc[n+](CC(=O)c2cccs2)c1)c1ccc[n+](CC(=O)c2cccs2)c1.[Cl-].[Cl-] [Compound 33, N,N′-bis[3-carbonyl-1-(2-thien-2′-yl-2-oxoethyl)pyridinium]hydrazine dichloride] | 58.4% | 72.8% | 98.5% | 100% |  | % Breakage (AGE-BSA; 5 mM test compound): 20%; % Improvement in collagen solubility with respect to untreated control subject. ([5]; 15.0 mg/kg): 80.45%
O=C(C[n+]1cccc(C(=O)NNC(=O)c2ccc[n+](CC(=O)NC3CC3)c2)c1)NC1CC1.[Cl-].[Cl-] [Compound 39, N,N′-bis-[3-carbonyl-1-(2-cyclopropylamino-2-oxoethyl)pyridinium]hydrazine dichloride] | 43.0% | 62.8% | 95.6% | 98% |  | % Breakage (AGE-BSA; 5 mM test compound): 22.8%; % Improvement in collagen solubility with respect to untreated control subject. ([5]; 6.0 mg/kg): 28.00%
CS(=O)(=O)NNC(=O)c1ccc[n+](CC(=O)c2cc([N+](=O)[O-])cs2)c1.[Br-] [Compound 64, 1-(2-(4-nitrothien-2-yl)-2-oxoethyl)-3-(methanesulfonyl hydrazinocarbonyl)pyridinium bromide] |  |  |  |  | 60.94% | Relative Free Radical Scavenging Activity (%) on ABTS ([4]; 11.5 μM, listed as Compound No. 64, 11.5 µM): 41.8% and 26.01%; Relative Free Radical Scavenging Activity (%) on ABTS ([4]; 23.0 μM, listed as Compound No. 64, 23 µM): 55.7% and 57.39%; Relative Free Radical Scavenging Activity (%) on ABTS ([4]; 46.0 μM, listed as Compound No. 64, 46 µM): 72.2% and 99.30%; Relative Free Radical Scavenging Activity (%) on ABTS ([4]; 92.5 μM, listed as Compound No. 64, 92.5 µM): 99.0% and 99.62%; Relative Free Radical Scavenging Activity (%) on ABTS ([4]; 925 μM): 100%
O=C(C[n+]1cccc(C(=O)NNc2ccccc2)c1)Nc1ccccc1.[Cl-] [Compound 65, 1-(2-phenylamino-2-oxoethyl)-3-(phenyl hydrazinocarbonyl)pyridinium chloride] | 27.67% | 59.20% | 94.14% | 100.00% |  | % Breakage (AGE-BSA; 2.5 mM test compound): 68.35%
CS(=O)(=O)NNC(=O)c1ccc[n+](CC(=O)c2ccc([N+](=O)[O-])s2)c1.[Cl-] [Compound 67] | 13.11% | 50.70% | 97.46% | 99.43% |  | % Breakage (AGE-BSA; 1 mM test compound): 42.01%
O=C(NNS(=O)(=O)C(F)(F)F)c1ccc[n+](CC(=O)c2cccs2)c1.[Br-] [Compound 68, 1-(2-thien-2′-yl-2-oxoethyl)-3-(trifluoromethanesulfonyl hydrazinocarbonyl)-pyridinium bromide] | 38.47% | 43.54% | 89.32% | 95.07% | 92.64% | 
O=C(NCCO)c1ccc[n+](CC(=O)c2cccs2)c1.[Br-] [Compound 90, 1-(2-Thien-2′-yl-2-oxoethyl)-3-((2-hydroxyethyl)aminocarbonyl)pyridinium bromide] | 47.8% | 58.8% | 78.2% | 99.5% | 50% | Relative Free Radical Scavenging Activity (%) on ABTS ([4]; 925 μM): 100%
CCCCOC(=O)c1ccc[n+](CC(=O)Nc2ccccc2)c1.[Cl-] [Compound 93, 1-(2-Phenylamino-2-oxoethyl)-3-(n-butyloxycarbonyl)pyridinium chloride] | 8.5% | 8.6% | 9.6% | 11.4% | 57% | Relative Free Radical Scavenging Activity (%) on ABTS ([4]; 925 μM): 25.0%
